# Literature values, collected in patent US7166468B2, “Production of the lantibiotic cinnamycin with genes isolated from Streptomyces cinnamoneus” (Plant Bioscience Limited, priority 2001, dated 2007).
# Ends that are not written are not given here.
# Tested on: B. subtilis
# Details: stated as known activity
substance,measurement,value
"cinnamycin (CRQSCSFGPFTFVCDGNTK; thioether (positions not given here); not fully specified (bridges); also: lanthionine bridges, positions not given here)",Known activity of cinnamycin: inhibition of the growth of B. subtilis strains,inhibition of the growth of the B. subtilis strains
